Data from US20080045514A1 (Cytovia, Inc., priority 2006, published 2008).
Counter-ions that a name gives are not always drawn. Like-named read-outs stand apart in the source and are kept apart here.

Experiments:
Format in all cases: cell-based
[1] = test system: human lymphoma cell line Raji; test: Caspase cascade activation (EC50), Raji; details: Homo sapiens, RAJI cells, read-out: caspase potency (EC50) RAJI
Method: (§1) Human breast cancer cell lines T-47D, human hepatocellular carcinoma cell line SNU398, human colon carcinoma cell line HCT116, human cancer cell line H1299, human Burkitt's lymphoma cell line Namalwa, human lymphoma cell line Raji, and human B cell lymphoblastoid cell line Ramos were grown according to media component mixtures designated by American Type Culture Collection+10% FCS (Invitrogen Corporation), in a 5% CO2-95% humidity incubator at 37° C. T-47D and H1299 cells were maintained at a cell density between 50 and 80% confluency at a cell density of 0.1 to 0.6×10^6 cells/mL. Cells were harvested at 600×g and resuspended at 0.65×10^6 cells/mL into appropriate media+10% FCS. An aliquot of 22.5 μL of cells was added to a well of a 384-well microtiter plate containing 2.5 μL of a 10% DMSO in RPMI-1640 media solution containing 0.16 to 100 μM of 3-(2-chlorophenyl)-6-(3,4-methylenedioxyphenyl)-7H-[1,2,4]triazolo[3,4-b][1,3,4]thiadiazine or other test compound (0.016 to 10 μM final). An aliquot of 22.5 μL of cells was added to a well of a 384-well microtiter plate containing 2.5 μL of a 10% DMSO in RPMI-1640 media solution without test compound as the control sample. The samples were mixed by agitation and then incubated at 37° C. for 48 h in a 5% CO2-95% humidity incubator. After incubation, the samples were removed from the incubator and 25 μL of a solution containing 14 μM of N—(Ac-DEVD)-N′-ethoxycarbonyl-R110 (SEQ ID No.:1) fluorogenic substrate (Cytovia, Inc.; WO99/18856), 20% sucrose (Sigma), 20 mM DTT (Sigma), 200 mM NaCl (Sigma), 40 mM Na PIPES buffer pH 7.2 (Sigma), and 500 μg/mL lysolecithin (Calbiochem) was added. The samples were mixed by agitation and incubated at room temperature. Using a fluorescent plate reader (Model SPECTRAfluor Plus, Tecan), an initial reading (T=0) was made approximately 1-2 min after addition of the substrate solution, employing excitation at 485 nm and emission at 530 nm, to determine the background fluorescence of the control sample. After the 3 h incubation, the samples were read for fluorescence as above (T=3 h). Calculation: The Relative Fluorescence Unit values (RFU) were used to calculate the sample readings as follows: RFU(T=3H)−Control RFU(T=0)=Net RFU(T=3h) The activity of caspase cascade activation was determined by the ratio of the net RFU value for 3-(2-chlorophenyl)-6-(3,4-methylenedioxyphenyl)-7H-[1,2,4]triazolo[3,4-b][1,3,4]thiadiazine (Example P) or other test compound to that of control samples. The EC50 (nM) was determined by a sigmoidal dose-response calculation (Prism 3.0, GraphPad Software Inc.).

[2] = test system: human hepatocellular carcinoma cell line SNU398; test: Caspase cascade activation (EC50), SNU398; details: Homo sapiens, SNU-398, SNU398 cells
Method: as §1

[3] = test system: human breast cancer cell line T-47D; test: Caspase cascade activation (EC50), T-47D; details: Homo sapiens, T47D cells
Method: as §1

[4] = test system: human Burkitt's lymphoma cell line Namalwa; test: Caspase cascade activation (EC50), Namalwa; details: Homo sapiens, Burkitts lymphoma cell, Namalwa cells
Method: as §1

[5] = test system: human B cell lymphoblastoid cell line Ramos; test: Caspase cascade activation (EC50), Ramos; details: Homo sapiens, RAMOS cells, read-out: caspase potency (EC50) RAMOS
Method: as §1

[6] = test system: human colon carcinoma cell line HCT116; test: Caspase cascade activation (EC50), HCT116; details: Homo sapiens, HCT-116, HCT116 cells
Method: as §1

[7] = caspase cascade activation, read-out: caspase potency (EC50) SNU398
[8] = caspase cascade activation, read-out: caspase potency (EC50) T47D
[9] = caspase cascade activation, read-out: caspase potency (EC50) Namalwa
[10] = caspase cascade activation, read-out: caspase potency (EC50) HCT116
[11] = read-out: Caspase potency (EC50) SNU398
[12] = read-out: Caspase potency (EC50) T47D
[13] = read-out: Caspase potency (EC50) Namalwa
[14] = read-out: Caspase potency (EC50) HCT116

EC50 [1] [nM]	EC50 [2, 7] [nM]	EC50 [3, 8] [nM]	EC50 [4, 9] [nM]	EC50 [5] [nM]	EC50 [6, 10] [nM]	EC50 [2, 11] [nM]	EC50 [3, 12] [nM]	EC50 [4, 13] [nM]	EC50 [6, 14] [nM]	Structure (SMILES)
568	599	683	580	711	> 10000	–	–	–	–	Cc1ccc(-c2nnc3n2N=C(c2ccc4c(c2)OCO4)CS3)cc1 [C, 3-(4-Methylphenyl)-6-(3,4-methylenedioxyphenyl)-7H-[1,2,4]triazolo[3,4-b][1,3,4]thiadiazine]
133	–	–	71	78	–	–	–	–	–	COc1ccc(C2=Nn3c(nnc3-c3cc(Cl)c(OC)c(OC)c3)SC2)cc1 [Example 5, 3-(3-Chloro-4,5-dimethoxyphenyl)-6-(4-methoxyphenyl)-7H-[1,2,4]triazolo[3,4-b][1,3,4]thiadiazine]
3370	–	–	2560	2650	–	–	–	–	–	COc1ccccc1-c1nnc2n1N=C(c1ccc(OCCN(C)C)cc1)CS2 [Example 9, 3-(2-Methoxyphenyl)-6-(4-(2-dimethylaminoethoxy)phenyl)-7H-[1,2,4]triazolo[3,4-b][1,3,4]thiadiazine]
157	–	–	71	72	–	–	–	–	–	Cc1ccc(C2=Nn3c(nnc3-c3ccccc3Cl)SC2)cc1 [Example 11, 3-(2-Chlorophenyl)-6-(4-methylphenyl)-7H-[1,2,4]triazolo[3,4-b][1,3,4]thiadiazine hydrochloride]
–	2540	4720	–	545	5280	–	–	–	–	COc1ccc(-c2nnc3n2N=C(c2ccc(N)cc2)CS3)cc1OC [Example 29, 6-(4-Aminophenyl)-3-(3,4-dimethoxyphenyl)-7H-[1,2,4]triazolo[3,4-b][1,3,4]thiadiazine]
> 10000	–	–	> 10000	4860	–	–	–	–	–	COc1ccc(-c2nnc3n2N=C(c2ccc(NC(C)=O)cc2)CS3)cc1OC [Example 32, 6-(4-Acetamidophenyl)-3-(3,4-dimethoxyphenyl)-7H-[1,2,4]triazolo[3,4-b][1,3,4]thiadiazine]
2400	–	–	2730	2680	–	–	–	–	–	COc1ccc(-c2nnc3n2N=C(c2ccc4[nH]c(=O)oc4c2)CS3)c(OC)c1 [Example 33, 6-(2,3-Dihydro-2-oxobenzo[d]oxazol-6-yl)-3-(2,4-dimethoxyphenyl)-7H-[1,2,4]triazolo[3,4-b][1,3,4]thiadiazine]
–	412	915	303	–	492	–	–	–	–	Cc1cc(Cl)ccc1-c1nnc2n1N=C(c1ccc(C)c([N+](=O)[O-])c1)CS2 [Example 90, 3-(4-Chloro-2-methylphenyl)-6-(4-methyl-3-nitrophenyl)-7H-[1,2,4]triazolo[3,4-b][1,3,4]thiadiazine]
–	28	63	16	–	30	–	–	–	–	Cc1ccc(C2=Nn3c(nnc3-c3ccc(Cl)cc3C)SC2)cc1N [Example 91, 6-(3-Amino-4-methylphenyl)-3-(4-chloro-2-methylphenyl)-7H-[1,2,4]triazolo[3,4-b][1,3,4]thiadiazine]
–	> 10000	> 10000	> 10000	–	> 10000	–	–	–	–	Cc1ccc(C2=Nn3c(nnc3-c3ccc[nH]3)SC2)cc1 [Example 92, 6-(4-Methylphenyl)-3-(1H-pyrrol-2-yl)-7H-[1,2,4]triazolo[3,4-b][1,3,4]thiadiazine]
–	> 10000	> 10000	> 10000	–	> 10000	–	–	–	–	Cc1ccc(C2=Nn3c(nnc3-c3snnc3C)SC2)cc1 [Example 93, 3-(4-Methyl-1,2,3-thiadiazol-5-yl)-6-(4-methylphenyl)-7H-[1,2,4]triazolo[3,4-b][1,3,4]thiadiazine]
–	1440	2630	1290	–	5510	–	–	–	–	Cc1ccc(C2=Nn3c(nnc3-c3cccn3C)SC2)cc1 [Example 94, 3-(1-Methyl-1H-pyrrol-2-yl)-6-(4-methylphenyl)-7H-[1,2,4]triazolo[3,4-b][1,3,4]thiadiazine]
–	–	–	–	–	–	478	2700	328	693	Cc1ccc(C2=Nn3c(nnc3-c3cc([N+](=O)[O-])cn3C)SC2)cc1 [Example 95, 3-(1-Methyl-4-nitro-1H-pyrrol-2-yl)-6-(4-methylphenyl)-7H-[1,2,4]triazolo[3,4-b][1,3,4]thiadiazine]
–	–	–	–	–	–	35	136	31	79	COc1ccccc1-c1nnc2n1N=C(c1cc(Br)c3c(c1)CCN3)CS2 [Example 96, 6-(7-Bromoindolin-5-yl)-3-(2-methoxyphenyl)-7H-[1,2,4]triazolo[3,4-b][1,3,4]thiadiazine]
–	–	–	–	–	–	6	34	4	8	COc1cc(Cl)ccc1-c1nnc2n1N=C(c1ccc(C)cc1)CS2 [Example 97, 3-(4-Chloro-2-methoxyphenyl)-6-(4-methylphenyl)-7H-[1,2,4]triazolo[3,4-b][1,3,4]thiadiazine]
–	–	–	–	–	–	59	166	66	98	Cc1ccc(C2=Nn3c(nnc3-c3c(C)nc4ccccn34)SC2)cc1 [Example 98, 3-(2-Methyl-imidazo[1,2-a]pyridin-3-yl)-6-(4-methylphenyl)-7H-[1,2,4]triazolo[3,4-b][1,3,4]thiadiazine]
–	–	–	–	–	–	1260	5420	1180	1780	Cc1ccc(C2=Nn3c(nnc3-c3cc(N)cn3C)SC2)cc1 [Example 99, 3-(1-Methyl-4-amino-1H-pyrrol-2-yl)-6-(4-methylphenyl)-7H-[1,2,4]triazolo[3,4-b][1,3,4]thiadiazine]
–	3780	3650	2830	–	5330	–	–	–	–	COc1ccccc1-c1nnc2n1N=C(c1ccccc1)CS2 [Example K3]
–	82	268	68	–	124	–	–	–	–	COc1ccc(C2=Nn3c(nnc3-c3cccc(Cl)c3Cl)SC2)cc1 [Example M3]
540	501	542	–	514	> 10000	–	–	–	–	COc1ccc(-c2nnc3n2N=C(c2ccc4c(c2)OCO4)CS3)cc1OC [Example O1, 3-(3,4-Dimethoxyphenyl)-6-(3,4-methylenedioxyphenyl)-7H-[1,2,4]triazolo[3,4-b][1,3,4]thiadiazine]
–	765	1300	585	–	2620	–	–	–	–	COc1cccc(C2=Nn3c(nnc3-c3ccc(Cl)cc3Cl)SC2)c1 [Example O3]
> 1000	2640	669	–	628	> 10000	–	–	–	–	c1ccc(-c2nnc3n2N=C(c2ccc4c(c2)OCO4)CS3)cc1 [Example P1, 3-Phenyl-6-(3,4-methylenedioxyphenyl)-7H-[1,2,4]triazolo[3,4-b][1,3,4]thiadiazine]
–	> 10000	> 10000	292	–	> 10000	–	–	–	–	COc1ccccc1-c1nnc2n1N=C(c1ccc(Cl)c(Cl)c1)CS2 [Example Q3]
4860	–	–	2580	2580	–	–	–	–	–	COc1ccccc1-c1nnc2n1N=C(c1ccc([N+](=O)[O-])cc1)CS2 [Example X2]
